# Patent US4220755A, “Fortimicin B derivatives and process for production thereof” (Abbott Laboratories, priority 1976, dated 1980)
# Like-named read-outs stand apart in the source and are kept apart here.
# Columns and labels:
# [1] = test system: Staphylococcus aureus KY4279 ATCC6538P; assay: MIC, agar dilution method, pH 8.0; assay type: cell-based; conditions: pH 8.0, Staphylococcus aureus KY4279, read-out: Minimum inhibition concentration (MIC), SA
# Description: (§1) Measurement was carried out according to the agar dilution method, using a medium of pH 8.0, or the Japanese Antibiotic Medicament Standard, using a medium of pH 7.2 Units are in mcg/ml.
# S.A.: Staphylococcus aureus KY4279 ATCC6538P
# in vivo = conditions: mouse, iv
# Description: In this experiment, one group consisting of five ddY-strain mice is used. Test compounds dissolved in 0.2 ml of distilled water for injection are injected intravenously into each animal in 10 seconds. The LD50 is calculated according to the method of Behrens-Karber.
# Escherichia coli Juhl = assay: ED50 in infected mice; assay type: in vivo, ddY-strain mice; conditions: ip, 168 h, read-out: ED50 EC
# Description: (§2) In this experiment, one group consisting of five ddY-strain mice is used. The microorganisms shown below are inoculated into each animal. One hour after the inoculation, test compounds dissolved in distilled water for injection are injected intraperitoneally to test animals by one shot. The test animals are observed one week after the injection, and the ED50 is calculated according to the method of Behrens-Karber.
# *^2 EC means Escherichia coli Juhl. 2.1 × 10^4 cells are
# inoculated into each mouse.
# [2] = test system: Klebsiella pneumoniae 8045; assay: ED50 in infected mice; assay type: in vivo, ddY-strain mice; conditions: 168 h, read-out: ED50 KP
# Description: as §2
# *^1 KP means Klebsiella pneumoniae 8045. 1.3 × 10^5 cells
# are inoculated into each mouse.
# [3] = test system: Pseudomonas aeruginosa R5 KY8512; assay: MIC, agar dilution method, pH 7.2; assay type: cell-based
# Description: as §1
# 6: neomycin, producing phosphotransferase type I and type II.
# Providencia sp 164 = assay: MIC, agar dilution method, pH 7.2; assay type: cell-based
# Description: as §1
# 7: gentamicin, producing acetyltransferase type II.
# various microorganisms = assay: Antibacterial activity (general statements); assay type: cell-based; conditions: qualitative statement
# Description: as §1
# [4] = Stability in alkaline aqueous conditions; assay type: physicochemical; conditions: for Stability in aqueous solution: free base
# Description: The stability of 4-N-acylfortimicin B derivatives in aqueous alkaline conditions is poor. […] Therefore, purification of these compounds under basic conditions (for example, column chromatography with Amberlite CG-50, eluting with aqueous ammonia) is not practical.
# In contrast with the instability of 4-N-acylfortimicin B derivatives, 4-N-alkylfortimicin B derivatives are so stable that no decomposition occurs even in aqueous barium hydroxide solution at reflux temperature for 18 hours. Therefore, in the case of 4-N-alkylfortimicin B, any substituents can be introduced at 4-N-position of fortimicin B, even though such substituents can not be introduced as the acyl type to such position due to the aforementioned instability.
# [5] = R5KY8512, pH 7.2, read-out: Minimum inhibition concentration (MIC)
# [6] = pH 7.2, Providencia sp 164, 7**: gentamicin, producing acetyltransferase type II, read-out: Minimum inhibition concentration (MIC)
Compound,MIC [1] [µg/mL],LD50 (in vivo) [mg/kg],"ED50 (Escherichia coli Juhl; mice, intraperitoneal one shot 1 hour after inoculation of Escherichia coli Juhl (2.1 × 10^4 cells), sulfate, one week observation) [mg/kg]","ED50 ([2]; ip, mice, intraperitoneal one shot 1 hour after inoculation of Klebsiella pneumoniae 8045 (1.3 × 10^5 cells), sulfate, one week observation) [mg/kg]","MIC [3, 5] [µg/mL]",MIC (Providencia sp 164; [6]) [µg/mL],ED50 (Escherichia coli Juhl; Escherichia coli) [mg/kg],"ED50 ([2]; Klebsiella pneumoniae, 8045, ip) [mg/kg]",Antibacterial activity (various microorganisms),"MIC (Providencia sp 164; Providencia, 164, pH 7.2, read-out: Minimum inhibition concentration (MIC)) [µg/mL]","Stability in aqueous solution ([4]; pH 10, 100° C., 4 hours)","Stability in aqueous solution ([4]; pH 10, room temperature, 2 weeks)",Stability under strongly alkaline conditions [4],"MIC ([3]; R5KY8512, pH 7.2, P. aeruginosa R5 KY8512, 6**: neomycin, producing phosphotransferase type I and type II, read-out: Minimum inhibition concentration (MIC)) [µg/mL]"
"CO[C@H]1[C@@H](O)[C@H](N)[C@@H](O[C@H]2O[C@H]([C@H](C)N)CC[C@H]2N)[C@H](O)[C@@H]1N(C)C[C@@H](O)CCN [Compound 27, 4-N-[(S)-4-amino-2-hydroxybutyl]fortimicin B]",0.04,135,2.81,1.88,6.25,25,,,,,,,,
"CO[C@H]1[C@@H](O)[C@H](N)[C@@H](O[C@H]2O[C@H]([C@H](C)N)CC[C@H]2N)[C@H](O)[C@@H]1N(C)C(=O)CN [Compound 2, 4-N-glycylfortimicin B, reference compound]",0.04,330,,,12.5,,5.06,2.06,have antibacterial activity,25,almost completely decomposed,almost completely decomposed,slightly unstable,
"CO[C@H]1[C@@H](O)[C@H](N)[C@@H](O[C@H]2O[C@H]([C@H](C)N)CC[C@H]2N)[C@H](O)[C@@H]1N(C)C(=O)CNC(N)=O [Compound 3, 4-N-hydantoylfortimicin B, reference compound]",0.16,,,,,100,,,have antibacterial activity,,,,slightly unstable,50
